Measurements from patent publication EP0840609B1, “USE OF UNSUBSTITUTED AND SUBSTITUTED N-(PYRROL-1-YL)PYRIDINAMINES AS ANTICONVULSANT AGENTS” (Aventis Pharmaceuticals Inc., priority 1995, dated 1997).
Where a name gives a salt, the structure may show the parent alone.

Test system: brain membrane sodium channels
Assay: not given
Details: vesicular preparation of male Wistar rat cortices, 25 nM [^3H]batrachotoxin, 60 minutes at 25°C; read-out: Inhibition of [^3H]Batrachotoxin Binding IC50

Compound	IC50 [µM]
CCCN(c1ccncc1F)n1ccc2cc(O)ccc21 [1-[Propyl-4-(3-fluoropyridinyl)amino]-1H-indol-5-ol hydrochloride]	70
NCCc1cn(Nc2ccncc2)c2ccccc12 [3-Aminoethyl-N-(4-pyridinyl)-1H-indol-1-amine dimaleate]	44
CCCN(c1ccncc1)n1cc(CN)c2ccccc21 [3-Aminomethyl-N-propyl-N-(4-pyridinyl)-1H-indol-1-amine dihydrochloride]	10
Clc1cn(Nc2ccncc2)c2ccccc12 [3-Chloro-N-(4-pyridinyl)-1H-indol-1-amine salicylate]	11
CCCN(c1ccncc1)n1cc(Cl)c2ccccc21 [3-Chloro-N-propyl-N-(4-pyridinyl)-1H-1-amine hydrochloride]	10
CCc1cn(N(C)c2ccncc2)c2ccccc12 [3-Ethyl-N-methyl-N-(4-pyridinyl)-1H-indol-1-amine hydrochloride]	12
CCCN(c1ccncc1F)n1cccc1 [3-Fluoro-N-propyl-N-(1H-pvrrol-1-yl)-4-pyridinamine hydrochloride]	46
Cc1cn(Nc2ccncc2)c2ccc(O)cc12 [3-Methyl-1-(4-pyridinylamino)-1H-indol-5-ol]	20
CCCN(c1ccncc1)n1cc(C)c2cc(O)ccc21 [3-Methyl-1-(propyl-4-pyridinylamino)-1H-indol-5-ol hemi-oxalate]	21
Cc1cn(Nc2ccncc2)c2ccccc12.O=C(O)C(=O)O [3-Methyl-N-(4-pyridinyl)-1H-indol-1-amine oxalate]	11
Nc1cnccc1Nn1ccc2ccccc21 [4-[N-(1H-indol-1-yl)]-3,4-pyridinamine, 4-[N-(1H-indol-1-yl)]-3,4-pyridinamine hemihydrate]	22
CCCN(c1ccncc1)n1ccc2cc(Br)ccc21 [5-Bromo-N-propyl-N-(4-pyridinyl)-1H-indol-1-amine maleate]	14
Brc1ccc2c(ccn2Nc2ccncc2)c1 [5-bromo-N-(4-pyridinyl)-1H-indol-1-amine, 5-Bromo-N-(4-pyridinyl)-1H-indol-1-amine maleate]	23
NC(=O)N1c2ccccc2C=Cc2ccccc21 [Carbamazepine, reference compound]	94
CC(C)N(c1ccncc1)n1ccc2ccccc21 [N-(1-Methylethyl)-N-(4-pyridinyl)-1H-indol-1-amine maleate]	9
c1ccn(Nc2ccncc2)c1 [N-(1H-pyrrol-1-yl)-4-pyridinamine, N-(1H-Pyrrol-1-yl)-4-pyridinamine]	40
CC(C)CN(c1ccncc1)n1ccc2ccccc21 [N-(2-Methylpropyl)-N-(4-pyridinyl)-1H-indol-1-amine maleate]	9
c1ccc(Nn2ccc3ccccc32)nc1 [N-(2-pyridinyl)-1H-indol-1-amine, N-(2-Pyridinyl)-1H-indol-1-amine]	12
Clc1cnccc1Nn1ccc2ccccc21 [N-(3-Chloro-4-pyridinyl)-1H-indol-1-amine hydrochloride]	14
Cc1cn(Nc2ccncc2Cl)c2ccccc12 [N-(3-Chloro-4-pyridinyl)-3-methyl-1H-indol-1-amine hydrochloride]	29
CCCN(c1ccncc1Cl)n1cc(C)c2ccccc21 [N-(3-Chloro-4-pyridinyl)-3-methyl-N-propyl-1H-indol-1-amine]	44
CCCN(c1ccncc1Cl)n1ccc2ccccc21 [N-(3-Chloro-4-pyridinyl)-N-propyl-1H-indol-1-amine hydrochloride]	32
Cc1cn(Nc2ccncc2F)c2ccccc12 [N-(3-Fluoro-4-pyridinyl)-3-methyl-1H-indol-1-amine]	42
CCCN(c1ccncc1F)n1cc(C)c2ccccc21 [N-(3-Fluoro-4-pyridinyl)-N-propyl-3-methyl-1H-indol-1-amine hydrochloride]	31
Cc1cnccc1Nn1ccc2ccccc21 [N-(3-Methyl-4-pyridinyl)-1H-indol-1-amine]	21
c1cncc(Nn2ccc3ccccc32)c1 [N-(3-pyridinyl)-1H-indol-1-amine, N-(3-Pyridinyl)-1H-indol-1-amine]	12
c1ccc2c(c1)ccn2Nc1ccncc1 [N-(4-pyridinyl)-1H-indol-1-amine, N-(4-Pyridinyl)-1H-indol-1-amine maleate]	18
CCN(c1ccncc1)n1cccc1 [N-Ethyl-N-(1H-pyrrol-1-yl)-4-pyridinamine hydrochloride]	86
CCCN(c1ccncc1)n1cccc1 [N-Propyl-N-(1H-pyrrol-1-yl)-4-pyridinamine hydrochloride]	66
CCCN(c1ccncc1)n1ccc2ccccc21.Cl [N-Propyl-N-(4-pyridinyl)-1H-indol-1-amine hydrochloride]	5

Test system: Male CD-1 mice
Assay: Supramaximal electroshock in mice (block of tonic seizure / extensor tonus)
Format: in vivo
Details: Mus musculus, ip, @ 30 mpk, intraperitoneally, read-out: Inhibition of supramaximal electroshock (protection, normalized percent inhibition)
Description: This procedure is used as to predict anticonvulsant activity of a test compound in vivo by its ability to block a full tonic seizure induced by a supramaximal electroshock stimulation as an indication of efficacy in preventing grand mal seizures.
Male CD-1 mice (Charles River) weighing 18-30 grams were housed in accordance with the "NIH Guide to Care and Use of Laboratory Animals" (National Institutes of Health Care Publication 85-23, revised 1985) with a 12 hour light/dark cycle and free access to food and water. On the day of testing, animals are brought to the laboratory and randomly assigned to groups of six for the time course experiments and to test groups of ten for the dose-response experiments.
The apparatus used for the test was the Wahlquist Electroshock Stimulator (Model H), which has a power source of 120 volts ac. A current of 15.5 mA lasting for 300 msec was delivered by placing the terminals of the stimulator across the eyes of the animal. This stimulus results in a tonic seizure, defined as a brief period of hindlimb flexion followed by a prolonged period of hindlimb extension. […] Protection is calculated as a normalized percent inhibition relative to a vehicle treated control group.
A time course is performed to determine the peak time of drug action and then a dose response performed at the peak time to determine drug potency. Mice are dosed in a randomized fashion using a total of 4 dose groups and one vehicle control group. The ED50 value and 95% confidence limits are calculated by a computerized Litchfield and Wilcoxon analysis.
Drugs are prepared dissolved in distilled water and, if insoluble a drop of surfactant is added.. Drugs are routinely administered intraperitoneally for this test and given in a dosage volume of 10 ml/kg.

Compound	inhibition at 30 mg/kg [%]
CCCN(c1ccncc1F)n1cc(C)c2ccccc21 [N-(3-Fluoro-4-pyridinyl)-N-propyl-3-methyl-1H-indol-1-amine hydrochloride]	50

Same assay, conditions: Mus musculus, ip, @ 60 mpk, intraperitoneally, read-out: Inhibition of supramaximal electroshock (protection, normalized percent inhibition)

Compound	inhibition at 60 mg/kg [%]
CCCN(c1ccncc1F)n1cc(C)c2ccccc21 [N-(3-Fluoro-4-pyridinyl)-N-propyl-3-methyl-1H-indol-1-amine hydrochloride]	50

Same assay, conditions: Mus musculus, ip, intraperitoneally, dose response at peak time, read-out: INHIBITION OF SUPRAMAXIMAL ELECTROSHOCK IN MICE ED50

Compound	ED50 [mg/kg]
Cc1cn(Nc2ccncc2)c2ccccc12.O=C(O)C(=O)O [3-Methyl-N-(4-pyridinyl)-1H-indol-1-amine oxalate]	13
NC(=O)N1c2ccccc2C=Cc2ccccc21 [Carbamazepine, reference compound]	18.6
O=C1NC(=O)C(c2ccccc2)(c2ccccc2)N1 [Diphenylhydantoin, reference compound]	9.4
CCCN(c1ccncc1)n1c(C)ccc1C.O=C(O)/C=C\C(=O)O [N-(2,5-Dimethyl-1H-pyrrol-1-yl)-N-(n-propyl)-4-pyridinamine maleate]	50.1
CCCN(c1ccncc1)n1ccc2ccccc21.Cl [N-Propyl-N-(4-pyridinyl)-1H-indol-1-amine hydrochloride]	14.2

Same assay, conditions: intraperitoneally, dose response at peak time

Compound	INHIBITION OF SUPRAMAXIMAL ELECTROSHOCK IN MICE ED50 [mg/kg]
CCCN(c1ccncc1)n1cc(C)c2ccccc21.O=C(O)/C=C\C(=O)O [3-Methyl-N-propyl-N-(4-pvridinyl)-1H-indol-1-amine maleate]	14.4
